Assays:
EAE in SJL (H-2s) mice = assay: EAE induced with PLP139-151 in SJL mice, daily i.p. treatment with H1R or PAFR antagonist; format: in vivo; conditions: day 13, daily i.p. from day 2 after induction, pyrilamine 0.6 mg/mouse, CV6209 1 μg/mouse, vehicle group 3±0.52
Description: Modulation of EAE with H1R antagonist and PAFR antagonist. EAE was induced in SJL/J mice with PLP139-151. The H1R antagonist pyrilamine (0.6 mg/mouse; n=8), PAFR antagonist CV6209 (1 μg/mouse; n=8), or vehicle alone (PBS; n=7) were given daily i.p. starting on day 2 after the induction of EAE.
Mice were assessed daily for clinical signs of EAE (see id.). For each mouse, a remission was defined as decrease of the score of at least one point for at least 2 consecutive days. […] In the pharmacological studies, the histamine receptor 1 antagonist, pyrilamine (Sigma, St Louis, Mo.) and the PAF antagonist, CV6209 (Biomol, Plymouth Meeting, Pa.) were injected daily i.p. in PBS starting 2 days after the induction of EAE.
We targeted pharmacologically PAF and histamine, the main vasoactive mediators of murine anaphylaxis, and evaluated the development of EAE. EAE was induced in SJL (H-2s) mice with PLP139-151 and on the second day after the induction of the disease we started a daily i.p. treatment with the PAFR antagonist CV 6209, or with the H1R antagonist pyrilamine.

EAE = conditions: cited: Inaba et al. 1999; Inoue et al. 1996; cited from earlier work

CCCCCCCCCCCCCCCCCCNC(=O)OCC(COC(=O)N(Cc1cccc[n+]1CC)C(C)=O)OC (stereo not shown) [CV 6209]
mean EAE score (EAE in SJL (H-2s) mice): 0.71±0.36

COc1ccc(CN(CCN(C)C)c2ccccn2)cc1 [pyrilamine]
mean EAE score (EAE in SJL (H-2s) mice): 0.57±0.2

dermatan sulfate
effect on EAE (EAE): ameliorate EAE

batroxobin
effect on EAE (EAE): ameliorate EAE
